Test results: US11149253B2, “Small molecule compound combination for reprogramming digestive tract derived epithelial cells to endodermal stem/progenitor cells, reprogramming method and application” (INSTITUE OF TRANSFUSION MEDICINE, ACADEMY OF MILITARY …, priority 2016, dated 2021)

How the values were obtained:
[1] = system: human gastric epithelial cells (hGECs); test: Reprogramming of human gastric epithelial cells (hGECs) to induced endodermal progenitor cells (hiEndoPCs); clonal formation efficiency; format: cell-based; details: aGSEMFs supporting cells; for clonal formation efficiency when the compound was removed from 8M: removed one by one from 8 small molecule compounds (8M), day 15; for clonal formation efficiency when the compound was removed from BBRS: removed one by one from BBRS combination
Experimental: 1. Proliferation of the initiating cells: Primary isolated human gastric epithelial cells (hGECs) or duodenal epithelial cells (hDECs) were used as initiating cells, and cultured in Kubta medium (prepared according to the literature, literature source: Kubota, H., and Reid, L. M. (2000). Clonogenic hepatoblasts, common precursors for hepatocytic and biliary lineages, are lacking classical major histocompatibility complex class I antigen. Proc. Natl. Acad. Sci. USA 97, 12132-12137) at 37° C. in a 5% CO2 incubator for 4-5 days, and the initiating cells were expanded.
2. Preparation of trophoblast cells: adult human gastric subepithelial myofibroblasts (aGSEMFs, the cells were obtained by separation of gastric tissue matrix layers, frozen in large quantities after culture and proliferation, and resuscitated in advance when necessary) as trophoblast cells were treated with mitomycin-C (10 μg/mL, for the purpose of losing mitosis of trophoblast cells) for 2-3 hours, washed with PBS for 3-4 times, the cells were digested by TrypLE enzyme, and then the cells were washed;
3. When human gastric epithelial cells (hGECs) or duodenal epithelial cells (hDECs) were cultured until day 5-6, the treated gastric subepithelial myofibroblasts were added at a suitable density (generally, density of 1-3×10^5 per square centimeter) to human gastric epithelial cells (hGECs) or duodenal epithelial cells (hDECs) being cultured, and placed at 37° C. in a 5% CO2 incubator overnight (12-16 hours);
4. Reprogramming culture: on the second day after the addition of gastric subepithelial myofibroblasts, the medium was changed to 8M reprogramming medium, and changed every 2-3 days, and continuous observation was performed. Generally, induced endodermal progenitor cells (hiEndoPCs) were obtained after culturing for 1 week or 2 weeks more (7-15 days).
1. Calculation of the total number of clones.
2. Calculation of the area of different clones using the microscope graticule: the area of each microscope microlattice was 0.0625 mm^2, and the number of lattices occupied by the clone multiplied by 0.0625 mm^2 was the area of each clone.
3. The evaluation of the efficiency of reprogramming is proformed by colligating number of clones and the area of the clones.
Since the clonal morphology produced on day 15 of reprogramming was most typical (FIGS. 8E and 8F), colony formation efficiency was usually calculated at this time point. However, the growth rate of clones was faster from day 7 to day 15, and many clones were fused together to form a large clone upon the time point for calculation (FIG. 8B), so the number of clones was less upon calculation, but the total area was increasing. In order to reflect the reprogramming effect more objectively, the present experiment colligated the total number of clones and the number of clones and clone area under different areas, as the calculation method of reprogramming efficiency. Calculation of the area of different clones using the microscope graticule: the area of each microscope microlattice was 0.0625 mm^2, and the number of lattices occupied by the clone multiplied by 0.0625 mm^2 was the area of each clone. The calculation method for different sizes of cloned areas was shown in FIG. 9, and the calculation results were shown in Table 4.
1) The trophoblast cells screened in the second part were used as the supporting cells, and the small molecules were removed one by one based on the culture conditions for above-mentioned 8 small molecule compounds (8M), and the indispensable small molecules were first screened.
2) Based on the small molecule compound combinations screened in the step 1), the small molecule compounds were successively removed one by one so that the best small molecule compound combination (with highest reprogramming efficiency) and the combination with fewest small molecule compounds (guaranteed for the formation of the clone) were finally found. […]

hiEndoPCs-Pans = test: C-peptide release of hiEndoPC-derived pancreatic cells (ELISA); format: cell-based, human; details: insulin secretion promoter stimulation of hiEndoPCs-Pans
Experimental: 2. The adhered cells were induced to differentiate to the pancreas according to four stages.
2.1 MCDB 131 medium (purchased from Gibco)+1.5 g/L of sodium bicarbonate+2 mM (concentration) 2 mM of Glutamax (Glutamine)+10 mM of final glucose concentration (glucose)+2% of BSA (bovine serum albumin)+0.25 mM of ascorbic acid (vitamin C)+50 ng/mL of FGF7 (fibroblast growth factor 7)+0.25 μM of SANT-1+1 μM of retinoic acid (RA)+100 nM of LDN193189+1:200 ITS-X (insulin-Transferrin-selenium-ethanolamine complex solution)+200 nM TPB, cultured for 2 days.
2.2 MCDB 131 medium+1.5 g/L of sodium bicarbonate+2 mM of Glutamax+10 mM of final glucose concentration+2% of BSA+0.25 mM of ascorbic acid+2 ng/mL of FGF7+0.25 μM of SANT-1+0.1 μM of retinoic acid+200 nM of LDN193189+1:200 ITS-X+100 nM of TPB, cultured for 2 days. […]
13. The OD value was measured at a wavelength of 450 nm on a microplate reader within 30 minutes, and the results were calculated.

COC(=O)C1=C(C)NC(C)=C([N+](=O)[O-])C1c1ccccc1C(F)(F)F (stereo not shown) [Bay K 8644]
clonal formation efficiency when the compound was removed from 8M [1]: obviously decreased
clonal formation efficiency when the compound was removed from BBRS [1]: significantly decreased

Fructose diphosphate [FBP]
clonal formation efficiency when the compound was removed from 8M [1]: increased

O=C(NOC[C@H](O)CO)c1ccc(F)c(F)c1Nc1ccc(I)cc1F [PD0325901]
clonal formation efficiency when the compound was removed from 8M [1]: increased

CCCCNC(=O)NS(=O)(=O)c1ccc(C)cc1 [Tolbutamiden]
release of C peptide (hiEndoPCs-Pans): significantly increased

COc1cc2nc(N3CCCN(C)CC3)nc(NC3CCN(Cc4ccccc4)CC3)c2cc1OC [Bix01294]
clonal formation efficiency when the compound was removed from 8M [1]: obviously decreased
clonal formation efficiency when the compound was removed from BBRS [1]: significantly decreased

O=C(O)C(Cc1c[nH]c2ccccc12)N1C(=O)c2ccccc2C1=O (stereo not shown) [RG108]
clonal formation efficiency when the compound was removed from 8M [1]: obviously decreased
clonal formation efficiency when the compound was removed from BBRS [1]: significantly decreased

NC(=O)c1ccc(-c2nc(-c3ccc4c(c3)OCO4)c(-c3ccccn3)[nH]2)cc1 [SB431542]
clonal formation efficiency compared with BBRS ([1]; SB431542 as basis): not as good as the optimal combination of BBRS
clone formation with the fewest small molecules ([1]; SB431542 as basis): capable for forming the clones
clonal formation efficiency when the compound was removed from 8M [1]: clones were not produced
clonal formation efficiency when the compound was removed from BBRS [1]: no clones were formed

[Cl-].[K+] [KCL]
release of C peptide (hiEndoPCs-Pans): significantly increased

CCCC(CCC)C(=O)O [VPA, Valproic Acid]
clonal formation efficiency when the compound was removed from 8M [1]: did not change significantly

O=C(O)/C=C(/CCc1ccc(Cl)cc1)c1ccccc1 [PS48]
clonal formation efficiency when the compound was removed from 8M [1]: increased
